Assay results taken from patent US20160039936A1, “FIBROBLAST GROWTH FACTOR RECEPTOR INHIBITION FOR THE TREATMENT OF DISEASE” (UNIVERSITY OF MIAMI, priority 2011, published 2016).

What was measured:
FGFR = conditions: Hagel M et al 2015; cited from earlier work
isolated NRVM = assay: Cross-sectional area (hypertrophy) of isolated NRVM with receptor antagonists (Example 4); type: cell-based, rat; conditions: NRVM 48 h, PD173074 10 nM, AZD4547 5 nM, anti-FGFR4 10 μg/ml
Procedure: (§1) NRVM were isolated using a standard isolation system (Worthington Biochemical Corporation) (Faul et al., 2011). Hearts from 1-2 day old Sprague Dawley rats were harvested, minced in calcium-and magnesium-free Hank's Balanced Salt Solution (HBSS), and the tissue digested with 50 μg/ml trypsin at 4° C. for 20-24 hours. Soybean trypsin inhibitor in HBSS was added, and the tissue was further digested with collagenase (in Leibovitz L-15 medium) under slow rotation (15 rpm) at 37° C. for 45 minutes. Cells were released by triturating the suspension 20 times with a standard 10 ml plastic serological pipette and filtering it twice through a cell strainer (70 μm, BD Falcon). Cells were incubated at room temperature for 20 minutes and spun at 100 g for 5 minutes. The cell pellet was resuspended in plating medium [Dulbecco's Modified Eagle Medium (DMEM; Cellgro) with 17% Media 199 (Invitrogen), 15% fetal bovine serum (FBS; Invitrogen) and 1% penicillin/streptomycin solution (P/S; Invitrogen)]. Cells were counted using a hemocytometer.
Cells were plated on glass and plastic surfaces, which were coated with laminin (Invitrogen; 10 μg/ml in PBS) at room temperature for 1 hour prior to plating. For immunofluorescence analysis, 3×10^5 cells were seeded per well on glass coverslips in 24-well plates. For Western blot or qPCR analyses of total extracts, 1×10^6 cells were seeded per well in 6-well plates, and for immunoprecipitation assays, 5×10^6 cells were seeded in 10 cm-culture dishes. Cells were left undisturbed in plating medium at 37° C. for 72 hours and then cultured in maintenance medium (DMEM with 20% Media 199, 1% insulin-transferrin-sodium selenite solution [ITS; Sigma-Aldrich] and 1% P/S) in the presence of 100 μM 5-bromo-2′-deoxyuridine (BrdU; Sigam-Aldrich). After 4 days, isolated cardiac myocytes were cultured in BrdU-containing maintenance medium in the presence of recombinant murine FGF23 or FGF2 (both at 25 ng/ml) for different time points.
(§2) Cultured cells were fixed in 2% PFA (in 5 mg/ml sucrose) for 5 minutes and permeabilized in 1% Triton X-100 (in PBS) for 10 minutes. We analyzed hypertrophic growth of isolated NRVM and NMVM on laminin-coated glass coverslips after 48 hours of treatment with growth factors. For FGFR4 expression and localization analyses, untreated NMVM from wild-type and FGFR4^−/− mice were immunolabeled. The mouse monoclonal antibody against sarcomeric α-actinin (EA-53; Sigma-Aldrich) was used at 1:1,000, and rabbit polyclonal anti-FGFR4 (C-16; Santa Cruz) at 1:50. Cy3-conjugated goat-anti mouse and Alexa488-conjugated goat-anti rabbit (Jackson Immuno Research) were used as secondary antibodies at 1:300. To visualize nuclei, fixed cells were incubated with 4′,6-diamidino-2-phenylindole (DAPI; 400 ng/ml in PBS) for 10 minutes. Immunofluorescence images were taken on a Leica TCS-SP5 confocal microscope with a 63× oil objective.
Myocyte cross-sectional area was measured based on α-actinin-positive staining using Leica AF6000 fluorescence software. To assess the signaling pathways involved in FGF23- and FGF2-mediated hypertrophy, we analyzed the morphometry of plated cells that were pre-treated with specific inhibitors for 60 minutes prior to the addition of the FGFs at 25 ng/ml (NRVMs) or at 100 ng/ml (NMVMs). The following inhibitors and concentrations were used: pan-FGFR, PD173074 (Sigma-Aldrich) at 10 nM; FGFR1-3, AZD4547 (ChemieTek) at 5 nM; and FGFR4 blocking antibody (human monoclonal, U3-11; U3Pharma) at 10 μg/ml.

C57BL/6 mice = assay: Intravenous injection of FGFs (with or without Fc-FGFR decoy receptors) in mice; type: in vivo, mouse; conditions: 40 μg/kg FGF, ten times over five days
Procedure: Twelve-week old adult C57BL/6 mice underwent tail vein injections using standard protocols as previously described for the systemic delivery of plasmid DNA (Faul et al., 2008). Briefly, mice were placed in a restrainer and 40 μg/kg of FGF23 dissolved in 200 μl of PBS were injected into the tail vein of 5 mice twice daily with eight hours in between injections for 5 consecutive days. Four mice underwent the same injection schedule using 200 μl of PBS alone as negative control. On the morning of the 6th day, 16 hours after the final tail vein injections, animals were sacrificed and the hearts were isolated and prepared using the same protocol as described above.
Short-axis cardiac sections were used to quantify myocardial thickness by measuring the distance from the inner to the outer myocardial zone at the mid-chamber zone. […] Since klothro-ablated kl/kl mice display severe growth retardation with small hearts (Kuro-o et al., Nature, 390(6655):45-51, 1997), we also measured relative wall thickness calculated as two times the anterior wall thickness divided by left ventricular internal diameter. Total RNA was isolated from flash frozen hearts using TRIzol (Invitrogen) and RT-PCR analyses were performed as described above.
We measured cross-sectional surface area of cardiac myocytes in paraffin-embedded short-axis sections of the heart. Briefly, 7 μm thick sections were deparaffinized according to our established protocols. To specifically label cardiac myocytes, we used mouse monoclonal MF20 antibody against sarcomeric myosin at 1:200 and Cy5-conjugated donkey-anti mouse (Invitrogen) as secondary antibody at 1:400. To visualize nuclei, fixed tissue was incubated with 4′,6-diamidino-2-phenylindole (DAPI; 400 ng/ml in PBS) for 5 minutes. To visualize cellular borders, fixed tissue was incubated with wheat germ agglutinin (WGA) conjugated to Alexa Fluor 555 (Invitrogen) at 1 mg/ml in PBS containing 10 mM sodium azide. Immunofluorescence images were taken on a Leica TCS-SP5 confocal microscope with a 63× oil objective. Leica AF6000 fluorescence software was used to quantify cross-sectional cell surface area of 25 cells per field at four fields along the mid-chamber free wall based on WGA-positive staining.
Next, we wanted to determine the effectiveness of this FGFR trapping system on FGF-induced LVH in mice. To our knowledge, Fc decoy receptors have not yet been used to study FGFR function in vivo in any biological context, but served as valuable tools to analyze the functions of other receptor tyrosine kinases, like receptors for vascular endothelial growth factor (VEGFR) and their role in tumor growth and metastasis. We used similar Fc-FGFR concentrations as described for Fc-VEGFR in animal models of cancer (Lin J et al., Cancer Res. 2005; 65(15):6901-9).

[1] = tested on: isolated neonatal rat ventricular cardiac myocytes (NRVM); assay: Surface area (hypertrophy) of isolated NRVM, immunocytochemistry and morphometry (Examples 1-2); type: cell-based; conditions: 48 h incubation with the FGF alone
Procedure: as §1, with “(Toraason” for “(Faul”, “Toxicology, 56(1):107-117, 1989).” for “2011).”, “rats (Charles River)” for “rats”, “calcium- and” for “calcium-and”, “added” for “added,”, “by gently” for “by”
Cells were plated on glass and plastic surfaces which were coated with laminin (Invitrogen; 10μg/ml in PBS) at room temperature for 1 hour prior to plating. For immunofluorescence analysis, 1×10^6 cells were seeded per well on glass coverslips in 6-well plates. For protein and RNA isolation, 2×10^6 cells were seeded in 6 cm-culture dishes. Cells were left undisturbed in plating medium at 37° C. for 72 hours and then cultured in maintenance medium (DMEM with 20% Media 199, 1% insulin-transferrin-sodium selenite solution (ITS; Sigma-Aldrich) and 1% P/S) in the presence of 100 μM 5-bromo-2′-deoxyuridine (BrdU; Sigam-Aldrich) to eliminate proliferating non-myocytes resulting in a relatively pure population of isolated cardiac myocytes (Bishopric et al., 1987). After 4 days, isolated cardiac myocytes were cultured in BrdU-containing maintenance medium in the presence of recombinant murine FGF23 (26.1 kDa, 251 amino acids; R&D Systems) or FGF2 (16.2 kDa, 144 amino acids; R&D Systems) for 48 hours.
We analyzed isolated NRVM on laminin-coated glass coverslips by immunocytochemsitry according to our established protocols (Faul et al., Cell Biol., 169(3):415-424, 2005; Faul et al., Cell Biol., 27(23):8215-8227, 2007). The mouse monoclonal antibody against sarcomeric α-actinin (EA-53; Sigma-Aldrich) was used at 1:1000 and Cy3-conjugated goat-anti mouse (Jackson Immuno Research) as secondary antibody at 1:750. To visualize nuclei, fixed cells were incubated with 4′,6-diamidino-2-phenylindole (DAPI; 400 ng/ml in PBS) for 5 minutes. Immunofluorescence images were taken on a Leica TCS-SP5 confocal microscope with a 63× oil objective with a 1.6× zoom. Leica AF6000 fluorescence software was used to measure the cell surface area based on α-actinin-positive staining.
To assess the signaling pathways involved in FGF23- and FGF2-mediated hypertrophy, we analyzed the morphometry of plated cells that were pre-treated with specific inhibitors for 60 minutes prior to the addition of the FGFs at varying concentrations.

[2] = tested on: neonatal mouse ventricular myocytes (NMVM); assay: Hypertrophic growth and β-MHC of isolated NMVM (wild-type or FGFR4−/−); type: cell-based; conditions: 48 h
Procedure: NMVM were isolated enzymatically (Kreusser et al., 2014). Briefly, hearts from 1-3 day-old mice were harvested, minced in PBS/glucose and further digested with collagenase type 2 (0.2% w/v) and DNase (0.05% w/v) on a rotary shaker at 37° C. for 11 minutes. Cells were then released from the tissue by triturating the suspension twice with a standard 10 ml plastic serological pipette, transferred to DF10 medium (Dulbecco's Modified Eagle Medium/Ham's Nutrient Mixture F12 adjusted to 17 mM NaHCO2 containing 2 mM L-glutamine, 1% P/S and 10% FBS), and stored on ice. The remaining tissue was further incubated in PBS/glucose/collagenase/DNase solution on a rotary shaker at 37° C. for 11 minutes. The trituration and incubation steps were repeated 5-7 times until the tissue was completely dissolved. Cells were pelleted at 300 g for 5 minutes, resuspended in DF20 media (Dulbecco's Modified Eagle Medium/Ham's Nutrient Mixture F12 adjusted to 17 mM NaHCO2 containing 2 mM L-glutamine, 1% P/S and 20% FBS), and preplated for 1 hour to eliminate fibroblasts. Remaining cells were counted using a hemocytometer and plated on glass and plastic surfaces, which were coated with laminin (Sigma-Aldrich; 10 μg/ml in PBS) at room temperature for 1 hour prior to plating. For immunofluorescence analysis, 3×10^5 cells were seeded per well on glass coverslips in 24-well plates. For Western blot analyses of total protein extracts, 5×10^6 cells were seeded in 10 cm-culture dishes. Cells were left undisturbed in DF20 medium at 37° C. for 72 hours, starved overnight with DF medium (Dulbecco's Modified Eagle Medium/Ham's Nutrient Mixture F12 adjusted to 17 mM NaHCO2 containing 2 mM L-glutamine, 1% P/S), and treated in DF medium with recombinant FGF23, FGF2 (both at 100 ng/ml) or AngII (1 μM, Sigma-Aldrich) for 48 hours.
HEK293 cells, NRVM or NMVM were treated with growth factors for 30 minutes to analyze activation of signal transduction mediators, or for 48 hours to analyze expression levels of hypertrophic marker proteins. Cells were scraped from 6-well plates using 500 μl CHAPS extraction buffer (20 mM Tris-HCl pH7.5, 500 mM NaCl, 0.5% CHAPS, protease inhibitor cocktail (Roche), protein phosphatase inhibitors [Sigma-Aldrich]) and incubated on ice for 30 minutes. The cell lysate was centrifuged at 14,000 rpm and 4° C. for 30 minutes, and the supernatant boiled in sample buffer and analyzed by SDS-PAGE and immunoblotting. For protein extraction from mouse hearts, tissue was isolated, minced and homogenized in RIPA extraction buffer (50 mM Tris-HCl pH 7.5, 200 mM NaCl, 1% Triton X-100, 0.25% DOC, 1 mM EDTA, 1 mM EGTA, protease and phosphatase inhibitors) at 1:10 (w:v), and protein lysates were prepared as described above.
as §2
Myocyte cross-sectional area was measured based on α-actinin-positive staining using Leica AF6000 fluorescence software. […]

## C=CC(=O)Nc1cccc(C)c1Nc1ncc2cc(-c3c(Cl)c(OC)cc(OC)c3Cl)ccc2n1 [BLU9931]
FGFR
  FGFR4 inhibition: very potent and selective

## AZD4547
Isolated NRVM; FGF2 25 ng/ml
  FGF2-induced hypertrophy (cross-sectional area) with receptor antagonist: prevented
Isolated NRVM; FGF23 25 ng/ml
  FGF23-induced hypertrophy (cross-sectional area) with receptor antagonist: but not FGF23-induced hypertrophy

## FGF19: endocrine fibroblast growth factor 19
C57BL/6 mice
  induction of LVH: significant induction of LVH
[1]
  cell surface area: significant dose-dependent increase

## angiotensin (Ang) II [AngII, pro-hypertrophic angiotensin II (Sigma-Aldrich), reference compound]
[2]; immunoblot
  expression of β-MHC protein in FGFR4−/− NMVM: induced this effect
  expression of β-MHC protein in wild-type NMVM: increased expression
[2]; FGF 100 ng/ml, AngII 1 μM
  cross-sectional area (size) of NMVM from FGFR4−/− mice: increase the size
  cross-sectional area of wild-type NMVM: significant increases

B1: FGF21: endocrine fibroblast growth factor 21 (protein, UniProt Q9NSA1 29-209, looked up)
Fibroblast growth factor 21: HPIPDSSPLLQFGGQVRQRYLYTDDAQQTEAHLEIREDGTVGGAADQSPESLLQLKALKPGVIQILGVKTSRFLCQRPDGALYGSLHFDPEACSFRELLLEDGYNVYQSEAHGLPLHLPGNKSPHRDPAPRGPARFLPLPGLPPALPEPPGILAPQPPDVGSSDPLSMVGPSQGRSPSYAS
C57BL/6 mice
  induction of LVH: significant induction of LVH
[1]
  cell surface area: significant dose-dependent increase
